# Experimental data from patent publication US20210369680A1, “METHODS OF TREATING DISEASES AND DISORDERS RESULTING FROM BETA CORONAVIRUS INFECTION” (T3D Therapeutics, Inc., priority 2020, published 2021).
# Values joined by “and” are separate entries in the source; they are usually repeats but may differ in a detail not shown here. Equal entries are not always repeated.
# Experiments:
# human PPARα = molecular target: T1, human PPARα (Homo sapiens, UniProt Q07869); assay: Human PPAR activation, transient transfection study in transfected CV-1 cells; type: cell-based
# T1 construct: expressed in transfected cells; host or cells: CV-1 cells
# T1 sequence (Q07869 1-468): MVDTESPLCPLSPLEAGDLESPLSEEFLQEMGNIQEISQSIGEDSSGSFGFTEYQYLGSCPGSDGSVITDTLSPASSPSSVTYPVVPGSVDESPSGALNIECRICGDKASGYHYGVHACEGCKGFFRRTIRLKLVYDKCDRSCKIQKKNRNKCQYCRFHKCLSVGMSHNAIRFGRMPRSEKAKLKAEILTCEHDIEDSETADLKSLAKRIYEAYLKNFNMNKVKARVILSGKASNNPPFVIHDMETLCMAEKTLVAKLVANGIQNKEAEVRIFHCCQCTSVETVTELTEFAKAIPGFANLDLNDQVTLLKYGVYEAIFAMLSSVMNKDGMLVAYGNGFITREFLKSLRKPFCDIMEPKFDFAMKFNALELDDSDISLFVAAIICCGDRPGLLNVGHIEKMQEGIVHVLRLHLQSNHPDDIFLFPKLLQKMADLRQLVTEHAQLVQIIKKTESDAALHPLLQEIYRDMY
# Description: (§1) Human PPAR Activation by Compound of Example 11 in Transient Transfection Study
# (§2) Table 2 summarizes the results of studies performed in transfected CV-1 cells with three different lots of Compound of Example 11. […].
# human PPARγ = molecular target: T2, human PPARγ (Homo sapiens, UniProt P37231); assay: as above; type: cell-based
# T2 construct: expressed in transfected cells; host or cells: CV-1 cells
# T2 sequence (P37231 1-505): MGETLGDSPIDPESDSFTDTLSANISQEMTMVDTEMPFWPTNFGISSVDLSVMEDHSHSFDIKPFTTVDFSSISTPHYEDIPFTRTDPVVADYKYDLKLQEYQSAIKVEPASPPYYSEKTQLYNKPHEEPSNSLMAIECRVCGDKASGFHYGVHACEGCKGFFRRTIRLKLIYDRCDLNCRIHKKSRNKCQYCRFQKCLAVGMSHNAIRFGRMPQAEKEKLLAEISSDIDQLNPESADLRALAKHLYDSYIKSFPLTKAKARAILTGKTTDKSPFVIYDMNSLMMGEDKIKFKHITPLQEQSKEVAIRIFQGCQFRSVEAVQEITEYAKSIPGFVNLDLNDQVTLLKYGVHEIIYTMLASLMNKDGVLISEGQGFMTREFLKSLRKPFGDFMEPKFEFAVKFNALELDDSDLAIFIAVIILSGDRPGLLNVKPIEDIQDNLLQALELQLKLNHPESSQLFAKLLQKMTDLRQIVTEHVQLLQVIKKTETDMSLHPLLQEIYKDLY
# Description: as §1, §2
# human PPARδ = molecular target: T3, human PPARδ (Homo sapiens, UniProt Q03181); assay: as above; type: cell-based
# T3 construct: expressed in transfected cells; host or cells: CV-1 cells
# T3 sequence (Q03181 1-441): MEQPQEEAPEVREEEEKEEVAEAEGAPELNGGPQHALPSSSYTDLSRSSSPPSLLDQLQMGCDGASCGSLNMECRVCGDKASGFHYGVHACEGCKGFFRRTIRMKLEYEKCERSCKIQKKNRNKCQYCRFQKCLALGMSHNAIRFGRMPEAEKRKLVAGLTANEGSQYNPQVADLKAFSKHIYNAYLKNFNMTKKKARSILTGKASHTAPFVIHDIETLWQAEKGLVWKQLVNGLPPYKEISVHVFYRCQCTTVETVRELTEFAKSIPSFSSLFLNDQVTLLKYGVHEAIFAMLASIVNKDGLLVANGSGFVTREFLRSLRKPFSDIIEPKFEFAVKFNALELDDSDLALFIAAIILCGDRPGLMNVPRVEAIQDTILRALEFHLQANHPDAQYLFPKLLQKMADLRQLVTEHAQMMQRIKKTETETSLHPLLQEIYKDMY
# P-glycoprotein (P-gp) = molecular target: T4, P-glycoprotein (P-gp) (Homo sapiens, UniProt P08183); assay: Effect of P-gp inhibitor verapamil on Caco-2 permeability; type: in vitro ADME
# T4 construct: endogenous in cells; host or cells: Caco-2 cells
# Description: Example 18: Effect of P-gp Inhibitor Verapamil on Caco-2 Permeability of Compound of Example 11
# [1] = Rat brain penetrance pharmacokinetics after oral dosing; type: in vivo, male Sprague-Dawley rats; details: for B/P Ratio / Brain Tissue Cone. / Plasma Conc.: individual rats; for Average (B/P Ratio): mean of 3 rats
# Description: Determination of Brain to Plasma Ratios for Compound of Example 11
# For compounds of the present disclosure to be effective in treating cognitive impairment, it must have an ability to cross the BBB and penetrate the brain. […] The plasma exposure as measured by AUClast was 9569±1190 hr*ng/mL.
# T4 sequence (P08183 whole entry): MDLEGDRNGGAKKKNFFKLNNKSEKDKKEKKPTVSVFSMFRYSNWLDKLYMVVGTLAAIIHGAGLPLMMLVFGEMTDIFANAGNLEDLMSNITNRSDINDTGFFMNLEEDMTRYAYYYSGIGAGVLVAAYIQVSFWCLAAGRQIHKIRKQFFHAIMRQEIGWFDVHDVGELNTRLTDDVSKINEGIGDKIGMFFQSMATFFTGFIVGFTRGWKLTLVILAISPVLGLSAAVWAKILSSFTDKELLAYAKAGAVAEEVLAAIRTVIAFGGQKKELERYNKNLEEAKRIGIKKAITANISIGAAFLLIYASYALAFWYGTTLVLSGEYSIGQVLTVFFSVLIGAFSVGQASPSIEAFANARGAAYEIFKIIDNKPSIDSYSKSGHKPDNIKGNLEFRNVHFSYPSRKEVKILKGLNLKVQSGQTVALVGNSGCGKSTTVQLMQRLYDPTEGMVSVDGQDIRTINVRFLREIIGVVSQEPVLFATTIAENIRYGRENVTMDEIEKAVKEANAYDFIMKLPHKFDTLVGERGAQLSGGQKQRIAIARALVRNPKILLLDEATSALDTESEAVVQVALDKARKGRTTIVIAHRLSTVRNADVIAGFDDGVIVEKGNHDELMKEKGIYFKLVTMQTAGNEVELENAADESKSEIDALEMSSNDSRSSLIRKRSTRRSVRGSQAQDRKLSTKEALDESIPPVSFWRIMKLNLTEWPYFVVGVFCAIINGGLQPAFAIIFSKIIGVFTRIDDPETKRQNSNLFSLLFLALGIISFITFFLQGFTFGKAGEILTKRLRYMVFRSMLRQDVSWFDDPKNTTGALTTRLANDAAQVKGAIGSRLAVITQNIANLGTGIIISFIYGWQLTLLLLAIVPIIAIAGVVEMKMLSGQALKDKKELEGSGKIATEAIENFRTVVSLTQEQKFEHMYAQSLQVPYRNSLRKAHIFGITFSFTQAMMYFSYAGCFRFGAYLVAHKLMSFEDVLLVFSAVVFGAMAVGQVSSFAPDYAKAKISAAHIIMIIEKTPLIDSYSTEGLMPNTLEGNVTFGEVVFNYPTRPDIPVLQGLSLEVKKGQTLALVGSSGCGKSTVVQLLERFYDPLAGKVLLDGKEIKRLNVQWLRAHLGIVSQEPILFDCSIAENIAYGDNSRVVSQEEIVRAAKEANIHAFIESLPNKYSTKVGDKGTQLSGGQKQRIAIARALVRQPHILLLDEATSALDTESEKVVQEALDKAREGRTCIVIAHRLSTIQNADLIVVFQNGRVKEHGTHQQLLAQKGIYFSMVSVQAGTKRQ
smiles,measurement,setting,value
"CCc1oc(-c2ccc(OC)cc2)nc1CCOc1ccc2c(c1)CC[C@H]2CC(=O)[O-].[Na+] [Example 11, Sodium (S)-2-(5-(2-(5-ethyl-2-(4-methoxyphenyl)oxazol-4-yl)ethoxy)-2,3-dihydro-1H-inden-1-yl)acetate]",Peak effect PPARα,human PPARα,1.87
same,Emax,"human PPARα; CV-1, average of three lots, read-out: Average % maximal response PPARα",49%
same,Average % maximal response PPARα,human PPARα; average of three lots,significantly reduced
same,Peak effect PPARγ,human PPARγ,29.49
same,Emax,"human PPARγ; CV-1, read-out: Average % maximal response PPARγ",74%
same,Peak effect PPARδ,human PPARδ,17.68
same,greater potency in activating human PPARδ over human PPARγ,human PPARδ,15 fold
same,selectivity over the human PPAR alpha subtype,human PPARδ,~30 fold
same,Emax,"human PPARδ; CV-1, read-out: Average % maximal response PPARδ",76%
same,substrate for P-gp,P-glycoprotein (P-gp),not a substrate
same,Brain/Plasma ratio,"[1]; 1 hour, rat, oral 3 mg/kg",0.361±0.142
same,B/P Ratio,[1]; 1.0 hr,0.36 and 0.51 and 0.22
same,Brain Tissue Cone.,[1]; 1.0 hr,161 ng/g and 101 ng/g and 226 ng/g
same,Plasma Conc.,[1]; 1.0 hr,453 ng/mL and 199 ng/mL and 1020 ng/mL
same,Average (B/P Ratio),[1]; 1.0 hr,0.361
same,Brain/Plasma ratio,"[1]; 3 hours, rat, oral 3 mg/kg",0.220±0.033
same,B/P Ratio,[1]; 3.0 hr,0.26 and 0.21 and 0.19
same,Brain Tissue Cone.,[1]; 3.0 hr,234 ng/g and 269 ng/g and 274 ng/g
same,Plasma Conc.,[1]; 3.0 hr,1270 ng/mL and 1430 ng/mL
same,Average (B/P Ratio),[1]; 3.0 hr,0.220
same,Brain/Plasma ratio,"[1]; 5 hours, rat, oral 3 mg/kg",0.171±0.011
same,B/P Ratio,[1]; 5.0 hr,0.17 and 0.18 and 0.16
same,Brain Tissue Cone.,[1]; 5.0 hr,208 ng/g and 247 ng/g and 333 ng/g
same,Plasma Conc.,[1]; 5.0 hr,1260 ng/mL and 1340 ng/mL and 2040 ng/mL
same,Average (B/P Ratio),[1]; 5.0 hr,0.171
same,Brain/Plasma ratio,"[1]; 7 hours, rat, oral 3 mg/kg",0.328±0.154
same,B/P Ratio,[1]; 7.0 hr,0.16 and 0.35 and 0.47
same,Brain Tissue Cone.,[1]; 7.0 hr,203 ng/g and 216 ng/g
same,Plasma Conc.,[1]; 7.0 hr,1240 ng/mL and 368 ng/mL and 462 ng/mL
same,Average (B/P Ratio),[1]; 7.0 hr,0.328
same,Brain/Plasma ratio,"[1]; 12 hours, rat, oral 3 mg/kg",0.350±0.077
same,B/P Ratio,[1]; 12.0 hr,0.30 and 0.44 and 0.31
same,Brain Tissue Cone.,[1]; 12.0 hr,104 ng/g and 114 ng/g and 117 ng/g
same,Plasma Conc.,[1]; 12.0 hr,345 ng/mL and 259 ng/mL and 377 ng/mL
same,Average (B/P Ratio),[1]; 12.0 hr,0.350
same,average plasma half-life,"[1]; rat, oral 3 mg/kg",3.33 h
same,plasma Cmax,"[1]; rat, oral 3 mg/kg",1547 ± 248 ng/mL
same,plasma exposure AUClast,"[1]; rat, oral 3 mg/kg",9569 ± 1190 ng·h/mL
